This note sets out measurements from US6555546B2, “Use of 5HT3 antagonists for promoting intestinal lavage” (Janssen Pharmaceutics, N.V., priority 1997, dated 2003).

SMILES strings stand for the structures. Values joined by “and” are separate entries in the source; they are usually repeats but may differ in a detail not shown here. Identical values can stand only once. Like-named read-outs stand apart in the source and are kept apart here.

The subject of assay [1] is Beagle dogs. Kind of assay: KleanPrep-induced intestinal lavage in dogs. It counts as in vivo, dog. Conditions: for ED50: Canis lupus familiaris, oral pretreatment one hour earlier. The method, then:
(§1) Beagle dogs of both sexes and varying in body weight were used. During the experiments, the dogs were individually housed in cages. They were uniquely identified by an ear tattoo number (received at the time of weaning). The animals were fasted overnight but were given free access to fresh tap water via automatic drinking nipples in the back of the cage.
The dogs were orally pretreated with test compound or distilled water (0.5 ml/kg) and 1 hour later challenged by gavage with KleanPrep® solution. Dependent on the type of experiment, the KleanPrep® solution was administered more than once at 15 minutes intervals. The standard administration volume was 200 ml. The occurrence of liquid stools at 1, 2, 3, 4, 5 and 6 hours after the first administration of KleanPrep® was noted. The KleanPrep® solution consisted of polyethyleneglycol 3350 (59 g/l), sodium sulfate (5.685 g/l), sodium hydrogencarbonate (1.685 g/l), sodium chloride (1.465 g/l), potassium chloride (0.7425 g/l), aspartate (0.0494 g/l) and vanille (0.3291 g/l).
Each dose of the test compounds was given to 5 animals.

In the next assay the target is T1, 5HT3 receptor (Mus musculus, UniProt P23979).
T1 construct: Cells were homogenized in tris.HCl buffer; endogenous in cells; host or cells: NxG 108CC15 (NG108-15) cell membranes
T1 sequence (P23979 24-489): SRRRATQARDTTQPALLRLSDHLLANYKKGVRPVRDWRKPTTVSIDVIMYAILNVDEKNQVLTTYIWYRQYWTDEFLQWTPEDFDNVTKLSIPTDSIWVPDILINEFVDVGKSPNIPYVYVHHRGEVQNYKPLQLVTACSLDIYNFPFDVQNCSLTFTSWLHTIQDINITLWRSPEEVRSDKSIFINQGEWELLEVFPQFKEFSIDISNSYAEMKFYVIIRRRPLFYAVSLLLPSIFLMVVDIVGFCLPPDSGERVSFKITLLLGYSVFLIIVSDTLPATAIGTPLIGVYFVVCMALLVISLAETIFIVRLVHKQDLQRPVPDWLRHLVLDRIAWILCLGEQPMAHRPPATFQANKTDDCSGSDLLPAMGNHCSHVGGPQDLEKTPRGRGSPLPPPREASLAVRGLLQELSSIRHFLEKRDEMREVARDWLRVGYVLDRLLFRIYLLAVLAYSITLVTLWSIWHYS
Kind of assay: In vitro 5HT3 receptor binding with [3H]GR 65630. As to the method:
The incubation was run for 60 minutes at 37° C. Labelled membranes were collected and […] by rapid filtration under suction over […] filters (presoaked in 0.1% polyethyleneimine for at least 1 hour) using a 40-well filtration manifold. […] All experiments were repeated independently at least two times. Radioactivity on the filters was counted in a Packard Tri-carb 1600CA liquid scintillation analyzer. Counting data were collected directly in a Macintosh SE personal computer and further transferred to a Macintosh II personal computer. Counting data from assays in the presence of a compound were automatically expressed as percent of total binding measured in the absence of test compound. Inhibition curves plotting percent of total binding versus the log concentrations of the test compound were automatically generated.

The subject of assay [2] is Beagle dogs. Kind of assay: MgSO4 induced intestinal lavage in dogs. Type of assay: in vivo, dog. Particulars: Canis lupus familiaris; po, 1 hour before oral MgSO4 (200 ml); liquid stools within 4 hours; read-out: MgSO4 induced intestinal lavage ED50 (95% c.l.). As to the method: as §1
Beagle dogs (of both sexes and varying in body weight, 16 hours deprived from food) were orally pretreated with the test compound (0.5 ml/kg) and challenged 1 hour later with an oral administration of magnesium sulphate (MgSO4.7H2O, 64 g/l, 0.26 M; 200 ml). The onset of MgSO4-induced intestinal lavage was assessed over a period of 4 hours after challenge. Liquid stools within 4 hours occured almost never in control animals treated with distilled water (3.0% false positives; n>100) and were considered to reflect significant acceleration of the MgSO4-induced intestinal lavage. Doses in the active dose range were given to five animals each, tested in separate experimental sessions including solvent-treated control animals.

Setting [3] is: fourth experiment: 2×200 ml KleanPrep, relative to ED50 for within 4 hours.

For `CO[C@@H]1CN(CCCNc2nccc(=O)[nH]2)CC[C@@H]1NC(=O)c1cc(Cl)c(N)c2c1OC(C)(C)C2` (relative stereo) [Compound A, (−)-cis-4-amino-5-chloro-2,3-dihydro-N-[1-[3-[(3,4-dihydro-4-oxo-2-pyrimidinyl)amino]propyl]-3-methoxy-4-piperidinyl]-2,2-dimethyl-7-benzofurancarboxamide], the ED50 in the assay with Beagle dogs [1] (read-out: ED50 liquid stools within 1 hour, fourth experiment: 2×200 ml KleanPrep) was 0.085 mg/kg. Moreover, the ED50 in the assay with Beagle dogs [1] (fourth experiment: 2×200 ml KleanPrep, read-out: ED50 liquid stools within 4 hours) came to 0.0036 mg/kg. Further, in the assay on Beagle dogs [1] (setting [3]), the “dose increment for liquid stools within 1 hour” value was 24 times, the “dose increment for liquid stools within 2 hours” value is on record as 3 times and the “dose increment for liquid stools within 3 hours” value came out at 1.1 times. Besides, the “dogs displaying liquid stools within 2 hours after KleanPrep administration” value in the assay with Beagle dogs [1] (second experiment: single 200 ml KleanPrep, 0.16 mg/kg p.o. one hour earlier) is given as “three out of five”. In the assay with Beagle dogs [1] (third experiment: 4×200 ml KleanPrep at 15 minute intervals, 0.16 mg/kg p.o. one hour earlier), the “dogs displaying first liquid stool within 2 hours after first administration of KleanPrep” value is recorded as “all five”. Moreover, the “time of first liquid stool after first administration of KleanPrep (individual dogs)” value in the assay on Beagle dogs [1] (third experiment: 4×200 ml KleanPrep at 15 minute intervals, 0.16 mg/kg p.o. one hour earlier, 0.16 mg/kg) was 38 min and 39 min and 42 min and 52 min and 77 min. On 5HT3 receptor (N×G 108CC15 cell membranes, [3H]GR 65630 2 nM, 60 min 37° C, logarithmic mean and 95% confidence limits, read-out: 5HT3 receptor Ki (95% c.l.)), the Ki was determined as 0.58 nM. The 50% effective dose (ED50) with Beagle dogs [2] was found to be 0.0027 mg/kg.
As to `CN1[C@@H]2CC[C@H]1C[C@@H](OC(=O)c1c[nH]c3ccccc13)C2` [(endo)-Tropisetron], the ED50 in the assay on Beagle dogs [2] is 0.074 mg/kg.
On the same count and under the same terms, next, `Cc1nccn1CC1CCc2c(c3ccccc3n2C)C1=O` (racemic) [(±)-Ondansetron]: 0.097 mg/kg.
Same read-out and setting: as for `COc1cc(N)c(Cl)cc1C(=O)NC1CN2CCC1CC2` (racemic) [(±)-Zacopride], the figure is 0.023 mg/kg; as for `CN1C2CCCC1CC(NC(=O)c1nn(C)c3ccccc13)C2` (stereo not drawn) [(endo)-Granisetron], 0.014 mg/kg.
`COc1cc(N)c(Cl)cc1C(=O)NC1CCN2CCCC1C2` (racemic) [(±)-Renzapride] showed a Ki on 5HT3 receptor of 10 nM. Besides, in the assay on Beagle dogs [2], the ED50 is 0.074 mg/kg.
The like results for `CC(C)n1c(=O)n(C(=O)N[C@H]2C[C@H]3CC[C@@H](C2)N3C)c2ccccc21` [BIMU-8] were, in that order, 0.29 nM and 0.016 mg/kg.
In the same order, the values of `Cn1cc(C(=O)[C@@H]2CCc3nc[nH]c3C2)c2ccccc21` [(−)-YM-060] are 0.14 nM and 0.0012 mg/kg.
In the same order, the values of `CCn1c(=O)n(C(=O)OC2C[C@H]3CC[C@@H](C2)N3C)c2ccccc21` (stereo partly drawn) [DAU-6236] are 6.6 nM and 0.049 mg/kg.
For the compound `CN1[C@@H]2CC[C@H]1C[C@@H](OC(=O)c1cc(Cl)cc(Cl)c1)C2` [Bemesetron], at 5HT3 receptor, the inhibition constant Ki came out at 8 nM. Besides, the ED50 in the assay with Beagle dogs [2] worked out at 0.77 mg/kg.

As usually defined, the ED50 is the dose at which the effect has come halfway, by size or by number of responders. Broadly, the Ki is the equilibrium dissociation constant of an inhibitor or competing ligand from its target.
